Measurements taken from PMC11566429 (Genes and Environment, 2024).
Entries after “also recorded” stand apart in the source; their conditions may differ. Where two headings read alike, the source gives them in different places.

How the values were obtained:
TA100 = assay: Ames test, mutagenic activity in TA100; format: cell-based, Salmonella typhimurium; details: maximum mutagenic activity
Excerpt: (§1) The maximum mutagenic activity (rev/mg) was used as an indicator of the magnitude of mutagenicity among those calculated according to the following equation from each representative experiment (main test or confirmatory test) for chemicals that were judged positive: Mutagenic activity (rev/mg) = (number of revertant colonies at each dose—number of revertant colonies for the negative control) / dose (mg).

[1] = test system: TA100, TA1535, TA98, TA1537, and WP2uvrA; assay: Ames test (preincubation method), five standard strains, overall judgement; details: for Ames test result (in words, text): presence and absence of S9 mix; for Ames test: presence and absence of rat liver S9 mix
Protocol: The S9 mix (0.5 mL) consisted of 0.05 mL of the S9 fraction and 0.45 mL of a cofactor solution (Cofactor-1®; Oriental Yeast Co., Ltd.), and contained 8 mM MgCl2, 33 mM KCl, 5 mM glucose-6-phosphate, 4 mM NADPH, 4 mM NADH and 100 mM sodium phosphate (pH 7.4).
Four strains of Salmonella typhimurium, TA100, TA1535, TA98, and TA1537 and one strain of Escherichia coli, WP2uvrA were used.
Ames test was conducted using the preincubation method. […] For the tests carried out in the absence of S9 mix, 0.1 mL of the negative control (vehicle), test chemical solution at various concentrations, or positive control solution was added to a test tube, to which 0.5 mL of 100 mM sodium phosphate buffer (pH 7.4) and 0.1 mL of bacterial culture were added. For the tests carried out in the presence of the S9 mix, the S9 mix was added instead of the phosphate buffer. After mixing, the test tubes were preincubated at 37 °C for 20 min in a shaking water bath. After completion, the treatment mixture was immediately added and mixed with 2 mL of 0.05 mM L-histidine/0.05 mM biotin/0.05 mM L-tryptophan molten top agar and the content was poured onto a plate of minimal-glucose agar medium (Tesmedia®, Oriental Yeast). The plates were incubated at 37 °C for approximately 48 h and the revertant colonies that appeared were counted. The sign of the bacterial background lawn was examined as an indicator of cytotoxicity. In addition, the presence or absence of precipitates from the test chemicals was evaluated.
Multiple tests (dose-finding, main, or confirmatory tests) were conducted. The dose-finding test for almost all the test chemicals was conducted with TA100 in the presence and absence of the S9 mix in a single plate per dose. The main test was conducted in duplicate with the five strains in the presence and absence of the S9 mix. […] Dimethyl sulfoxide (DMSO) was used as a negative control (vehicle).
Mutagenicity was evaluated according to the so-called “two-fold” rule for TA100, TA98, and WP2uvrA, or “three-fold” rule for TA1535 and TA1537 [19]. […] Historical negative control counts were also considered during the evaluation.

[2] = test system: TA100, TA1535, TA98, TA1537, TA97; details: TA100, TA1535, TA98, TA1537, TA97 (± S9) ref 16; cited from earlier work
TA100, TA98 = details: cited from earlier work
WP2uvrA = assay: Ames test, mutagenic activity in WP2uvrA; format: cell-based, Escherichia coli; details: maximum mutagenic activity
Excerpt: as §1

[3] = test system: TA100, TA1535, TA98, TA1537, WP2uvrA; details: TA100, TA1535, TA98, TA1537, WP2uvrA (± S9) ref 9; cited from earlier work
TA1537 = format: cell-based, Salmonella typhimurium; details: TA1537 -S9, maximum mutagenic activity
Excerpt: as §1

TA98 = assay: Ames test, mutagenic activity in TA98; format: cell-based, Salmonella typhimurium; details: maximum mutagenic activity
Excerpt: as §1

[4] = test system: TA100, TA1535, TA98, TA1537, TA1538; details: presence or absence of S9 mix not clearly indicated ref 7; cited from earlier work
TA100, TA98, TA102 = TA100, TA98, TA102 (± S9) ref 7; cited from earlier work

With `c1cnc2cccnc2c1` [1,5-Naphthyridine] the “Tester strains showing positive (mutagenic activity in rev/mg)” value (“Tester strains showing positive” below) (TA100; TA100 +S9) was “TA100 +S9 (419) rev/mg”, the “Tester strains showing positive” value (TA100; TA100 +S9, listed as 1,5-naphthyridine) was 419 rev/mg and the “Ames test result (in words, text)” value [1] was “only mutagenic in TA100; also recorded: mutagenic only in the presence of the S9 mix”. For the same compound, the Ames test ([1]; quinoline analogues) was “++ ("mutagenic (100-1000 rev/mg)" in Ames test)”.

For `c1ccc2[nH]cnc2c1` [Benzimidazole], the “Ames test result (in words, text)” value [1] is listed as “not mutagenic”, the Ames test result [2] is listed as “Non-mutagenic” and the Ames test result (TA100, TA98; TA100, TA98 (-S9) ref 14) is listed as “Non-mutagenic”.

For `c1ccc2cnccc2c1` [Isoquinoline], the “Ames test result (in words, text)” value [1] is listed as “non-mutagenic” and the Ames test result (TA100, TA98; TA100, TA98 (± S9) ref 10) is listed as “Non-mutagenic”.

In the case of `c1ncc2[nH]ccc2n1` [5H-Pyrrolo[3,2-d]pyrimidine], the “Ames test result (in words, text)” value [1] is reported as “non-mutagenic”.

In the case of `c1cnc2[nH]ncc2c1` [Pyrazolo[3,4-b]pyridine], the “Ames test result (in words, text)” value [1] is reported as “non-mutagenic”.

In the case of `c1ccc2[nH]ncc2c1` [Indazole], the Ames test ([1]; indole analogues) is given as “+ ("mutagenic (< 100 revertants/mg)" in Ames test)”, the “Ames test result (in words, text)” value [1] is given as “mutagenic in the presence and absence of S9 mix with WP2uvrA” and the Ames test result (TA100, TA98; TA100, TA98 (-S9) ref 14) is given as “Non-mutagenic”. For the same compound, the “Tester strains showing positive” value (WP2uvrA; WP2uvrA +S9) was 38 rev/mg and the “Tester strains showing positive” value (WP2uvrA; WP2uvrA -S9) was 40 rev/mg.

For `c1ccc2ncccc2c1` [Quinoline], the “Ames test result (in words, text)” value [1] is given as “only mutagenic in TA100; also recorded: mutagenic only in the presence of the S9 mix”, the Ames test ([1]; quinoline analogues) is given as “+++ ("mutagenic (>1000 revertants/mg)" in Ames test)” and the Ames test result [3] is given as “Mutagenic (+ S9) in TA100, TA98, WP2uvrA”.

In the case of `c1ccc2ncncc2c1` [Quinazoline], the “Ames test result (in words, text)” value [1] is reported as “non-mutagenic”.

With `c1cnc2cc[nH]c2c1` [4-Azaindole, 1H-Pyrrolo[3,2-b]pyridine] the Ames test ([1]; indole analogues) was “+ ("mutagenic (< 100 revertants/mg)" in Ames test)” and the “Ames test result (in words, text)” value [1] was “mutagenic in the absence of S9 mix with TA1537”.

In the case of `c1ccc2nnccc2c1` [Cinnoline], the “Tester strains showing positive” value (TA1537) is reported as “TA1537 -S9 (13) rev/mg”, the “Tester strains showing positive” value (TA1537; listed as cinnoline) is reported as 13 rev/mg and the “Ames test result (in words, text)” value [1] is reported as “mutagenic in TA1537; also recorded: mutagenic only in the absence of the S9 mix”. For the same compound, the “Ames test result (in words, text)” value ([1]; listed as cinnoline) was “mutagenic in the absence of S9 mix with TA1537” and the Ames test ([1]; quinoline analogues) was “+ ("mutagenic (< 100 revertants/mg)" in Ames test)”.

For `c1cc2cnccc2cn1` [2,6-Naphthyridine], the “Ames test result (in words, text)” value [1] was “non-mutagenic”.

In the case of `c1ccc2cnncc2c1` [Phthalazine], the “Ames test result (in words, text)” value [1] is listed as “non-mutagenic” and the Ames test result (TA100, TA98; TA100, TA98 (± S9) ref 11) is listed as “Non-mutagenic”.

In the case of `c1cnc2ccncc2c1` [1,6-Naphthyridine], the “Ames test result (in words, text)” value [1] is reported as “not mutagenic”.

In the case of `c1cnc2ncccc2c1` [1,8-Naphthyridine], the “Tester strains showing positive” value (TA100; TA100 +S9) is reported as “TA100 +S9 (170) rev/mg”, the “Tester strains showing positive” value (TA100; TA100 +S9, listed as 1,8-naphthyridine) is reported as 170 rev/mg and the “Ames test result (in words, text)” value [1] is reported as “only mutagenic in TA100; also recorded: mutagenic only in the presence of the S9 mix”. For the same compound, the Ames test ([1]; quinoline analogues) was “++ ("mutagenic (100-1000 rev/mg)" in Ames test)”.

In the case of `c1cc2ccncc2cn1` [2,7-Naphthyridine], the “Ames test result (in words, text)” value [1] is reported as “non-mutagenic”.

For `c1cnc2cnccc2c1` [1,7-Naphthyridine], the “Tester strains showing positive” value (TA98; TA98 +S9) was 24 rev/mg, the “Tester strains showing positive” value (TA98; TA98 -S9) was 12 rev/mg and the “Tester strains showing positive” value (TA100; TA100 +S9) was 255 rev/mg. For the same compound, the “Tester strains showing positive” value (TA100; TA100 -S9) was 40 rev/mg, the “Ames test result (in words, text)” value [1] was “mutagenic in both TA100 and TA98” and the “Ames test result (in words, text)” value ([1]; listed as 1,7-naphthyridine) was “mutagenic both in the presence and absence of the S9 mix”. The Ames test ([1]; quinoline analogues) was “++ ("mutagenic (100-1000 rev/mg)" in Ames test)”.

For `c1ccc2nccnc2c1` [Quinoxaline], the Ames test result [4] is given as “Non-mutagenic”, the Ames test result (TA100, TA98, TA102) is given as “Mutagenic (+ S9) in TA98” and the “Ames test result (in words, text)” value [1] is given as “non-mutagenic”.
